# Measured values reported in patent US20210255193A1, “LYSINE REACTIVE PROBES AND USES THEREOF” (The Scripps Research Institute, priority 2017, published 2021).
# How the values were obtained:
# [1] = biological target: T1, SFXN1 Sideroflexin-1 (Homo sapiens, UniProt Q9H9B4); test: competitive isoTOP-ABPP; type: binding; conditions: for isoTOP-ABPP ratio (R) at liganded lysine Q9H9B4_K170 / isoTOP-ABPP reactivity ratio at lysine Q9H9B4_K170: 50 uM, in vitro; for isoTOP-ABPP ratio (R) at liganded lysine Q9H9B4_K170: sol, 231; for isoTOP-ABPP reactivity ratio at lysine Q9H9B4_K170: 231 sol
# T1 construct: endogenous in cells; host or cells: MDA-MB-231 lysate
# T1 sequence (Q9H9B4 1-322): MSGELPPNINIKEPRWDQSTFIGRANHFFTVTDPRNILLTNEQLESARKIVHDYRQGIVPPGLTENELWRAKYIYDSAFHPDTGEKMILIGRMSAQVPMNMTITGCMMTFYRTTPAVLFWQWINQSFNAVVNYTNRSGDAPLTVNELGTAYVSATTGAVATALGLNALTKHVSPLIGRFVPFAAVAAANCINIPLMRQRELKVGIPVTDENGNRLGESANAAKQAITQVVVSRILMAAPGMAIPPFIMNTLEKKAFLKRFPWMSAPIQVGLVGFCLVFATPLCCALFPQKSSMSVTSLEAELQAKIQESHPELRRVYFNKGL
# Outline: (§1)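 Lysine engagement is reported as R, the MS1 peak-area ratio of heavy-tagged DMSO to light-tagged compound samples. Final fragment concentrations were 50 μM for activated esters and 100 μM for guanidinylating agents; STP-alkyne probe 0.1 mM, 1 h.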
# [2] = biological target: T2, EEF1A1 Elongation factor 1-alpha 1 (Homo sapiens, UniProt P68104); test: competitive isoTOP-ABPP; type: binding; conditions: for isoTOP-ABPP ratio (R) at liganded lysine P68104_K84 / isoTOP-ABPP reactivity ratio at lysine P68104_K84: 50 uM, in vitro; for isoTOP-ABPP ratio (R) at liganded lysine P68104_K84: sol, 231; for isoTOP-ABPP reactivity ratio at lysine P68104_K84: 231 sol; for isoTOP-ABPP ratio, lysine P68104_K84: 100 uM_231_sol_in vitro
# T2 construct: isoTOP-ABPP experiments performed in cell lysates (in vitro); endogenous in cells; host or cells: soluble proteome of human cancer cell lines (MDA-MB-231, Ramos, Jurkat)
# T2 sequence (P68104 1-462): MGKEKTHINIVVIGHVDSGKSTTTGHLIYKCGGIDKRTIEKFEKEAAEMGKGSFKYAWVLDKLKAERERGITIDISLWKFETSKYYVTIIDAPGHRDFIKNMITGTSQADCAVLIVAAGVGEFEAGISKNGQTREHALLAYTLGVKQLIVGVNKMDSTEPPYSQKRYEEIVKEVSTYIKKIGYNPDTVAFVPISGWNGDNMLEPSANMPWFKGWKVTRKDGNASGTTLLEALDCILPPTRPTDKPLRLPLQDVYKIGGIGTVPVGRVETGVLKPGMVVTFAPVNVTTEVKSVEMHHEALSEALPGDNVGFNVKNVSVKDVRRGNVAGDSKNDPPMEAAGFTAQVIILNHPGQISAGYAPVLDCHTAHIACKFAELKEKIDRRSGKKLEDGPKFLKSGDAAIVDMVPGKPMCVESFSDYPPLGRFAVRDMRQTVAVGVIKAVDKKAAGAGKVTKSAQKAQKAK
# Outline: as §1
compound,measurement,setting,value
"CC(C)(C)OC(=O)NCCCC(=O)Oc1ccc([N+](=O)[O-])cc1[N+](=O)[O-] [fragment 41, 2,4-Dinitrophenyl 4-((tert-butoxycarbonyl)amino)butanoate]",isoTOP-ABPP ratio (R) at liganded lysine Q9H9B4_K170,[1],2.5
"O=C(Oc1ccc([N+](=O)[O-])cc1[N+](=O)[O-])c1ccc(-c2ccccc2)cc1 [fragment 37, 2,4-Dinitrophenyl [1,1′-biphenyl]-4-carboxylate]",isoTOP-ABPP ratio (R) at liganded lysine P68104_K84,[2],20.0
"O=C(CCc1ccc2c(c1)OCO2)Oc1ccc([N+](=O)[O-])cc1[N+](=O)[O-] [fragment 45, 2,4-Dinitrophenyl 3-(benzo[d][1,3]dioxol-5-yl)propanoate]","isoTOP-ABPP ratio, lysine Q9H9B4_K170",[1]; 50 uM_231_sol_in vitro,2.1
"O=C(ON1C(=O)CCC1=O)c1cc(C(F)(F)F)cc(C(F)(F)F)c1 [fragment 46, 3,5-Bis(trifluoromethyl)benzoic acid NHS ester]","isoTOP-ABPP ratio, lysine Q9H9B4_K170",[1]; 50 uM_231_sol_in vitro,0.9
"O=C(Oc1ccc([N+](=O)[O-])cc1[N+](=O)[O-])C(c1ccccc1)c1ccccc1 [fragment 30, 2,4-Dinitrophenyl 2,2-diphenylacetate]",isoTOP-ABPP reactivity ratio at lysine Q9H9B4_K170,[1],4.5
same,isoTOP-ABPP reactivity ratio at lysine P68104_K84,[2],0.5
"O=C(Oc1ccc([N+](=O)[O-])cc1[N+](=O)[O-])c1cc(C(F)(F)F)cc(C(F)(F)F)c1 [fragment 31, 2,4-Dinitrophenyl 3,5-bis(trifluoromethyl)benzoate]",isoTOP-ABPP reactivity ratio at lysine P68104_K84,[2],0.4
"CC(=O)Oc1ccc([N+](=O)[O-])cc1[N+](=O)[O-] [fragment 43, 2,4-Dinitrophenyl acetate]",isoTOP-ABPP ratio (R) at liganded lysine P68104_K84,[2],0.7
"Cn1cc(CC(=O)Oc2ccc([N+](=O)[O-])cc2[N+](=O)[O-])c2ccccc21 [fragment 32, 2,4-Dinitrophenyl 2-(1-methyl-1H-indol-3-yl)acetate]",isoTOP-ABPP reactivity ratio at lysine Q9H9B4_K170,[1],8.6
same,isoTOP-ABPP reactivity ratio at lysine P68104_K84,[2],0.4
"O=C(CCc1cn(-c2ccccc2)nc1-c1ccccc1)Oc1ccc([N+](=O)[O-])cc1[N+](=O)[O-] [fragment 29, 2,4-Dinitrophenyl 3-(1,3-diphenyl-1H-pyrazol-4-yl)propanoate]",isoTOP-ABPP reactivity ratio at lysine Q9H9B4_K170,[1],20.0
same,isoTOP-ABPP reactivity ratio at lysine P68104_K84,[2],20.0
"N#Cc1ccc(C(=O)Oc2ccc([N+](=O)[O-])cc2[N+](=O)[O-])cc1 [fragment 44, 2,4-Dinitrophenyl 4-cyanobenzoate]","isoTOP-ABPP ratio, lysine Q9H9B4_K170",[1]; 50 uM_231_sol_in vitro,0.9
"O=C(CC12CC3CC(CC(C3)C1)C2)Oc1ccc([N+](=O)[O-])cc1[N+](=O)[O-] [fragment 38, 2,4-Dinitrophenyl 2-(adamantan-1-yl)acetate]",isoTOP-ABPP ratio (R) at liganded lysine Q9H9B4_K170,[1],1.9
"CC(C)(C)OC(=O)N=C(NC(=O)OC(C)(C)C)n1cccn1 [fragment 50, reference compound]","isoTOP-ABPP ratio, lysine Q9H9B4_K170",[1]; 100 uM_231_sol_in vitro,1.9
same,"isoTOP-ABPP ratio, lysine P68104_K84",[2],1.3
"O=C(CCc1coc2cc(F)ccc2c1=O)Oc1ccc([N+](=O)[O-])cc1[N+](=O)[O-] [fragment 36, 2,4-Dinitrophenyl 3-(7-fluoro-4-oxo-4H-chromen-3-yl)propanoate]",isoTOP-ABPP ratio (R) at liganded lysine P68104_K84,[2],0.7
"COC(=O)NC(=NC(=O)OCC1c2ccccc2-c2ccccc21)n1cccn1 [fragment 49, N-Methoxycarbonyl-N′-9-fluorenylmethoxycarbonyl-pyrazole-1-carboxamidine]","isoTOP-ABPP ratio, lysine P68104_K84",[2],1.2
